{"source": "patent US6313375A", "about": "“Maize aquaporins and uses thereof” (Pioneer Hi-Bred International, Inc., priority 1999, dated 2001)", "key": {"maize aquaporins": {"test_system": "maize aquaporins", "experiment": "Inhibition of water transport through maize aquaporins in the Xenopus oocyte swelling assay", "format": "cell-based", "protocol": "(§1) The biological activity of aquaporins is usually determined with Xenopus oocyte swelling assays (Maurel et al, 1993). MIP cRNA is injected into oocytes and after a 3-day incubation the oocytes are shifted to a hypotonic medium. If water channel proteins are present in the plasma membrane, the oocytes swell and burst much faster than the control oocytes. In these conditions oocytes injected with the plasma membrane AtRD28 aquaporin (Daniels et al., 1994) or maize aquaporin cRNAs rapidly increase their volume, indicating the presence of a facilitated water-transport pathway. The osmotic water permeability coefficient (Pf) of the oocyte membrane increases 8-fold over the control. Mercurial compounds were characteristic inhibitors of many water-channel proteins. Water transport through maize aquaporins are inhibited 50% by 1 mM mercuric chloride and this inhibition is reversed by the reducing agent -mercaptoethanol."}, "Xenopus oocyte": {"test_system": "Xenopus oocyte", "experiment": "Xenopus oocyte swelling assay (oocytes injected with aquaporin cRNA, shifted to hypotonic medium)", "format": "cell-based", "conditions": "3-day incubation, versus control oocytes", "protocol": "as §1"}}}
{"molecule": "OCCS", "note": "[-mercaptoethanol]", "values": [{"measurement": "reversal of the mercuric chloride inhibition of water transport through maize aquaporins", "setting": "maize aquaporins; reducing agent added after inhibition by 1 mM mercuric chloride", "value": "reversed"}]}
{"molecule": "[Cl][Hg][Cl]", "note": "[mercuric chloride]", "values": [{"measurement": "inhibition of water transport through maize aquaporins", "setting": "maize aquaporins; 1 mM mercuric chloride", "value": 50, "unit": "%"}]}
{"molecule": "AtRD28 aquaporin: plasma membrane AtRD28 aquaporin (Daniels et al., 1994), injected into oocytes as cRNA (protein, UniProt P30302 1-285, looked up) Aquaporin PIP2-3: MAKDVEGPDGFQTRDYEDPPPTPFFDAEELTKWSLYRAVIAEFVATLLFLYVTVLTVIGYKIQSDTKAGGVDCGGVGILGIAWAFGGMIFILVYCTAGISGGHINPAVTFGLFLARKVSLIRAVLYMVAQCLGAICGVGFVKAFQSSHYVNYGGGANFLADGYNTGTGLAAEIIGTFVLVYTVFSATDPKRNARDSHVPVLAPLPIGFAVFMVHLATIPITGTGINPARSFGAAVIFNKSKPWDDHWIFWVGPFIGATIAAFYHQFVLRASGSKSLGSFRSAANV", "values": [{"measurement": "increase of the osmotic water permeability coefficient (Pf) of the oocyte membrane over the control", "setting": "Xenopus oocyte", "value": 8, "unit": "fold"}]}
